According to US8933195B2, “Histone deacetylase inhibitors and synthetic method thereof and use thereof in manufacture of medicaments” (Nanjing Yoko Biomedical R & D Ltd., priority 2011, dated 2015):

What was measured:
[1] = system: Incap; assay: MTT cancer cell growth inhibition; type: cell-based; conditions: 72 h
[2] = system: human colon cancer HCT-116; assay: Subcutaneously transplanted tumors in nude mice; type: in vivo, BALB/cA nude mice; set-up: key to RTV (mean ± SD): RTV = Vt/V0, tumor volume at time t over volume at d0; conditions: for 1-T/C tumor inhibition rate / TV (mean ± SD) d0 / Weight d0 / RTV (mean ± SD) / TV (mean ± SD) d21: Table 2.1, 20 mg/kg q3d × 3w iv; for 1-T/C tumor inhibition rate: after three weeks; for RTV (mean ± SD) / TV (mean ± SD) d21: d21; for Tumor Volume TV (mean ± SD) d 0 / Tumor Volume TV (mean ± SD) d 3 / Tumor Volume TV (mean ± SD) d 7 / Tumor Volume TV (mean ± SD) d 10 / Tumor Volume TV (mean ± SD) d 14 / Tumor Volume TV (mean ± SD) d 17: Table 2.2; for Tumor Volume TV (mean ± SD) d 0 / Tumor Volume TV (mean ± SD) d 3 / Tumor Volume TV (mean ± SD) d 7 / Tumor Volume TV (mean ± SD) d 10 / Tumor Volume TV (mean ± SD) d 14 / Tumor Volume TV (mean ± SD) d 17 / Weight (mean ± SD) d 0 / Weight (mean ± SD) d 3 / Weight (mean ± SD) d 7 / Weight (mean ± SD) d 10 / Weight (mean ± SD) d 14 / Weight (mean ± SD) d 17 / Weight (mean ± SD) d 21: 20 mg/kg; for Weight (mean ± SD) d 0 / Weight (mean ± SD) d 3 / Weight (mean ± SD) d 7 / Weight (mean ± SD) d 10 / Weight (mean ± SD) d 14 / Weight (mean ± SD) d 17 / Weight (mean ± SD) d 21: Table 2.3
Method: The solvents are isopropanol and anhydrous ethanol (mixed in the volume ratio of 1:1). The test sample is dissolved with solvents and physiological saline in the ratio of 1:1 for use, and the above solvents and physiological saline are dissolved in the ratio of 1:1 as a negative control.
The number of mice in each group: 12 mice in the negative control group, and 6 mice in the administration group.
The cell strains are inoculated to the right axilla subcutaneous layer of the nude mice, with 5×10^6 per mouse. After formed, the transplanted tumors are passed down two generations in the nude mice and then used.
Tumor tissues in the vigorous growth period are cut into about 1.5 mm^3, and inoculated to the right axilla subcutaneous layer of the nude mice under aseptic conditions. For the subcutaneously transplanted tumors of the nude mice, the diameter of the transplanted tumors is measured by a vernier caliper. The mice are randomly grouped after the tumors grow to 100-200 mm^3. […] The diameter of the transplanted tumors is measured twice per week in the whole experimental process, and meanwhile the weight of the mice is weighed. The calculation formula of tumor volume (TV) is TV=½×a×b^2, where a and b represent length and width, respectively.
The relative tumor volume (RTV) is calculated according to the measured results, with the following calculation formula: RTV=Vt/V0, where V0 is the tumor volume obtained by measurement during administration in different cages (i.e., d0), Vt is the tumor volume obtained by measurement at each time. […] (Wc−WT)Wc×100%, where Wc is the tumor weight of the control group, and WT is the tumor weight of the treatment group.

[3] = molecular target: T1, HDAC7 (Homo sapiens, UniProt Q8WUI4); assay: Measurement of biochemical activities of HDAC (fluorescently-labeled acetylated lysine substrate)
T1 sequence (Q8WUI4 1-952): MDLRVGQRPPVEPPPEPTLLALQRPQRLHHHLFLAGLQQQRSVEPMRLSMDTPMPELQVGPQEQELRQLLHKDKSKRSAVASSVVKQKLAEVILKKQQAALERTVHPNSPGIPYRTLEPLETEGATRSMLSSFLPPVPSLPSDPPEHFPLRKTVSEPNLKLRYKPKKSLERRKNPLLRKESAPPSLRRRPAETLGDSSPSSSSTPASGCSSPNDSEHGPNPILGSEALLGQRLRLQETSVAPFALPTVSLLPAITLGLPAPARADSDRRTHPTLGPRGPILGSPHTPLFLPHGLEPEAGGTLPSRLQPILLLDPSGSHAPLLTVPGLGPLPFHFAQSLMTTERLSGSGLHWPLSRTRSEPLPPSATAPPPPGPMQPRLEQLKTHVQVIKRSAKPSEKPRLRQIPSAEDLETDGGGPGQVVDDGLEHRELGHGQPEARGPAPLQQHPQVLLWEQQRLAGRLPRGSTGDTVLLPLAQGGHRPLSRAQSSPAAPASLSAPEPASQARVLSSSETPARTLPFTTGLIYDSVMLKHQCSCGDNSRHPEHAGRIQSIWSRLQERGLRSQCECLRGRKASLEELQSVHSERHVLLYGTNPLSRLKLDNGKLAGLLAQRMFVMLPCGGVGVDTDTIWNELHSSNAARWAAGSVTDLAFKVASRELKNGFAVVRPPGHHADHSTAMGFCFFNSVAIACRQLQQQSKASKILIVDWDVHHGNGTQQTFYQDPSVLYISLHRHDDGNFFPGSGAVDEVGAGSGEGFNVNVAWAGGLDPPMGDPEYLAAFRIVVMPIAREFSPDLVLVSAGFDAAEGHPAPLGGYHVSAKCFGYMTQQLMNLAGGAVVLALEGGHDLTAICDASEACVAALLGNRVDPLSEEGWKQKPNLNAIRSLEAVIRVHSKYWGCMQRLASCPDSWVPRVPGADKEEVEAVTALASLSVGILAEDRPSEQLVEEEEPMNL
How it was run: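 For both HDAC isoforms, fluorescent acetyl-lysine substrate ([…] in reaction) incubated with enzyme and compounds for 30 min at 37; developer then added for 15 min at room temperature. Fluorescence read at excitation 360 nm, emission 460 nm.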

GI50 [1]	Weight d0 [2]	Weight (mean ± SD) d 0 [2]	Weight (mean ± SD) d 3 [2]	Weight (mean ± SD) d 7 [2]	Weight (mean ± SD) d 10 [2]	Weight (mean ± SD) d 14 [2]	Weight (mean ± SD) d 17 [2]	Weight (mean ± SD) d 21 [2]	IC50 HDAC7 [3]	SMILES	1-T/C tumor inhibition rate [2]	TV (mean ± SD) d0 [2]	RTV (mean ± SD) [2]	TV (mean ± SD) d21 [2]	Tumor Volume TV (mean ± SD) d 0 [2]	Tumor Volume TV (mean ± SD) d 3 [2]	Tumor Volume TV (mean ± SD) d 7 [2]	Tumor Volume TV (mean ± SD) d 10 [2]	Tumor Volume TV (mean ± SD) d 14 [2]	Tumor Volume TV (mean ± SD) d 17 [2]
0.2 µM	16.1 g	16.3 ± 1.0 g	15.8 ± 1.1 g	15.1 ± 0.9 g	14.5 ± 1.2 g	14.0 ± 1.0 g	13.5 ± 0.9 g	12.9 ± 0.9 g	no activity	C/C=C1\NC(=O)c2csc(n2)CNC(=O)C[C@@H](/C=C/CCSC(=O)CCCCCCC)OC(=O)[C@H](Cc2ccc(O)cc2)NC1=O [Compound 1-8]	69.49%	116 ± 22 mm^3	3.17 ± 2.08	368 ± 241 mm^3	118 ± 22 mm^3	139 ± 15 mm^3	165 ± 28 mm^3	203 ± 69 mm^3	265 ± 127 mm^3	305 ± 142 mm^3
0.5 µM	16.6 g	16.6 ± 1.1 g	15.9 ± 0.7 g	15.1 ± 0.9 g	14.5 ± 1.2 g	14.0 ± 1.0 g	13.5 ± 1.0 g	13.2 ± 1.0 g	no activity	C/C=C1\NC(=O)c2csc(n2)CNC(=O)C[C@@H](/C=C/CCSC(=O)CCCCCCC)OC(=O)[C@H](Cc2ccccc2)NC1=O [Compound 1-7]	72.24%	115 ± 20 mm^3	2.89 ± 1.62	332 ± 186 mm^3	116 ± 21 mm^3	131 ± 11 mm^3	158 ± 26 mm^3	199 ± 68 mm^3	245 ± 107 mm^3	275 ± 132 mm^3
1.2 µM	16.9 g	16.9 ± 1.0 g	16.6 ± 1.8 g	15.9 ± 1.6 g	15.5 ± 1.6 g	14.8 ± 1.8 g	14.2 ± 1.7 g	13.1 ± 1.6 g	no activity	C/C=C1\NC(=O)c2csc(n2)CNC(=O)C[C@@H](/C=C/CCSC(=O)CCCCCCC)OC(=O)[C@H](C(C)(C)C)NC1=O [Compound 1-6]	74.09%	121 ± 28 mm^3	2.69 ± 1.82	326 ± 221 mm^3	120 ± 28 mm^3	129 ± 15 mm^3	156 ± 23 mm^3	195 ± 58 mm^3	249 ± 110 mm^3	265 ± 122 mm^3
